These compounds were tested against T1, HMG-CoA reductase (Rattus norvegicus, UniProt P51639) (assay: intrinsic HMG-CoA reductase inhibition, in vitro protocol of J. Med. Chem., 28, p. 347-358 (1985)). Settings: compactin (mevastatin) assigned 100; IC50 of test compound compared with that of compactin determined simultaneously.
T1 sequence (P51639 1-887): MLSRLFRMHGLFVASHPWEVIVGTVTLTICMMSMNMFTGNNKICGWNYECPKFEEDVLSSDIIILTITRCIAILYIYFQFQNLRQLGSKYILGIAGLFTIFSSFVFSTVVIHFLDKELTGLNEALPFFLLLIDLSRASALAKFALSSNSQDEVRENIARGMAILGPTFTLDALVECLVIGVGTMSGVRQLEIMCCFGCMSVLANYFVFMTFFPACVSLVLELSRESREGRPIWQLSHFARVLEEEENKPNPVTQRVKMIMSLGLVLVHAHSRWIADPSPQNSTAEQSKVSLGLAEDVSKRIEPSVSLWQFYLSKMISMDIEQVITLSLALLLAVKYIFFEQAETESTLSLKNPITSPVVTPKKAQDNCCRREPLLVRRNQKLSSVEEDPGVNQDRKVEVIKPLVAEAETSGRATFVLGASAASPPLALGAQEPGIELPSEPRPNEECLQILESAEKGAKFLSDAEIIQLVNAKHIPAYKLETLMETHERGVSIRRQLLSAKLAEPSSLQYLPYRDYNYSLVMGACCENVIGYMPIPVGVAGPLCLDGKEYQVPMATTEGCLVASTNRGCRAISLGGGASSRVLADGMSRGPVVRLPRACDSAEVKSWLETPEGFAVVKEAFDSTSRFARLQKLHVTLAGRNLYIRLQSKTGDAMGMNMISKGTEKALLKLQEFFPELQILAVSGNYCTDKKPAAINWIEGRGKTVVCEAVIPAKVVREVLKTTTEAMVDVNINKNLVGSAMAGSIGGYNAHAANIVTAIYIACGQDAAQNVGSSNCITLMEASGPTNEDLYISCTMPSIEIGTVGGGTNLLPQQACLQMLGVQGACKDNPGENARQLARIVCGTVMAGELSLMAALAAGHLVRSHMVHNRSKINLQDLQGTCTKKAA
Assay type: biochemical
Description: The intrinsic HMG-CoA reductase inhibition activity of the claimed compounds is measured in the in vitro protocol published in J. Med. Chem., 28, p. 347-358 (1985).
For estimation of relative inhibitory potencies, compactin (i.e., mevastatin) was assigned a value of 100 and the IC50 value of the test compound was compared with that of compactin determined simultaneously in the published in vitro protocol.

Row | Structure (SMILES) | Relative Potency
1 | CCC(C)(C)C(=O)O[C@H]1C[C@@H](C)[C@@H](O)[C@@H]2C=C[C@H](C)[C@H](CC[C@@H]3C[C@@H](O)CC(=O)O3)[C@H]21 [6(R)-[2-[8(S)-(2,2-dimethylbutyryloxy)-2(S)-methyl-5(R)-hydroxy-6(R)-methyl-1,2,4a(R),5,6,7,8,8a(R)-octahydronaphthyl-1(S)]ethyl]-4(R)-hydroxy-3,4,5,6-tetrahydro-2H-pyran-2-one] | 100
2 | CCC(C)(C)C(=O)O[C@H]1C[C@@H](C)[C@@H](OCCc2ccccc2)[C@@H]2CC[C@H](C)[C@H](CC[C@@H]3C[C@@H](O)CC(=O)O3)[C@H]21 [6(R)-[2-[8(S)-(2,2-dimethylbutyryloxy)-2(S)-methyl-5(R)-(1-phenylethyl-2-oxy)-6(R)-methyl-1,2,3,4,4a(R)-,5,6,7,8, 8a(R)-decahydronaphthyl-1(S)]ethyl]-4(R)-hydroxy-3,4,5,6-tetrahydro-2H-pyran-2-one] | 300
3 | CCC(C)(C)C(=O)O[C@H]1C[C@@H](C)[C@@H](OP(=O)(c2ccccc2)c2ccccc2)[C@@H]2CC[C@H](C)[C@H](CC[C@@H]3C[C@@H](O)CC(=O)O3)[C@H]21 [6(R)-[2-[8(S)-(2,2-dimethylbutyryloxy)-2(S)-methyl-5(R)-diphenylphosphinyloxy-6(R)-methyl-1,2,3,4,4a(R),5,6,7,8,8a(R)-decahydronaphthyl-1(S)]ethyl]-4(R)-hydroxy-3,4,5,6-tetrahydro-2H-pyran-2-one] | 300
4 | CCC(C)(C)C(=O)O[C@H]1C[C@H](C)[C@H](O)[C@@H]2CC[C@H](C)[C@H](CC[C@@H]3C[C@@H](O)CC(=O)O3)[C@H]21 [6(R)-[2-[8(S)-(2,2-dimethylbutyryloxy)-2(S)-methyl-5(S)-hydroxy-6(S)-methyl-1,2,3,4,4a-(R)-,6,7,8,8a(R)-decahydronaphthyl-1(S)]ethyl]-4(R)-hydroxy-3,4,5,6-tetrahydro-2H-pyran-2-one] | 11.1
5 | CCC(C)(C)C(=O)O[C@H]1C[C@@H](C)C(=O)[C@@H]2CC[C@H](C)[C@H](CC[C@@H]3C[C@@H](O)CC(=O)O3)[C@@H]12 [6(R)-[2-[8(S)-(2,2-dimethylbutyryloxy)-2(S)-methyl-5-oxo-6(R)-methyl-1,2,3,4,4a(R)-,6,7,8,8a(R)-nonanydronaphthyl-1(S)]ethyl]-4(R)-hydroxy-3,4,5,6-tetrahydro-2H-pyran-2-one] | 125
6 | CCC(C)(C)C(=O)O[C@H]1C[C@@H](C)[C@@H](O)[C@@H]2CC[C@H](C)[C@H](CC[C@@H]3C[C@@H](O)CC(=O)O3)[C@H]21 [6(R)-[2-[8(S)-(2,2-dimethylbutyryloxy)-2(S)-methyl-5(R)-hydroxy-6(R)-methyl-1,2,3,4,4a(R),6,7,8,8a(R)-decahydronapththyl-1(S)]ethyl]-4(R)-hydroxy-3,4,5,6-tetrahydro-2H-pyran-2-one] | 50
7 | CCC(C)(C)C(=O)O[C@H]1C[C@H](C)[C@@H](O)[C@@H]2CC[C@H](C)[C@H](CC[C@@H]3C[C@@H](O)CC(=O)O3)[C@H]21 [6(R)-[2-[8(S)-(2,2-dimethylbutyryloxy)-2(S)-methyl-5(R)-hydroxy-6(S)-methyl-1,2,3,4,4a(R)-,6,7,8,8a(R)-decahydronaphthyl-1(S)]ethyl]-4(R)-hydroxy-3,4,5,6-tetrahydro-2H-pyran-2-one] | 99.6
8 | CCC(C)(C)C(=O)O[C@H]1C[C@@H](C)[C@@H](OC(=O)NCc2ccccc2)[C@@H]2CC[C@H](C)[C@H](CC[C@@H]3C[C@@H](O)CC(=O)O3)[C@H]21 [6(R)-[2-[8(S) (2,2-dimethylbutyryloxy)-2(S)methyl 5(R)-benzylaminocarbonyloxy-6(R)-methyl-1,2,3,4,4a(R)-,5,6,7,8,8a(R)-decahydronaphthyl-1(S)]ethyl]-4-(R)-hydroxy-3,4,5,6-tetrahydro-2H-pyran-2-one] | 360
9 | CCC(C)(C)C(=O)O[C@H]1C[C@@H](C)[C@@H](OC(=O)N(Cc2ccccc2)Cc2ccccc2)[C@@H]2CC[C@H](C)[C@H](CC[C@@H]3C[C@@H](O)CC(=O)O3)[C@H]21 [6(R)-[2-[8(S)-(2,2-dimethylbutyryloxyl)-2(S)-methyl-5(R)-dibenzylaminocarbonyloxy-6(R)-methyl-1,2,3,4,4a(R)-,5,6,7,8,8a(R)-decahydronaphthyl-1(S)]ethyl]-4(R)-hydroxy-3,4,5,6-tetrahydro-2H-pyran-2-one] | 94

— patent publication US4963538A, “5-oxygenated HMG-CoA reductase inhibitors” (Merck & Co., Inc., priority 1989, dated 1990)
